In patent publication US7534788B2, “Benzofuran and benzothiophene-2-carboxylic acid amide derivatives” (Hoffmann-La Roche Inc., priority 2007, dated 2009):

Target: T1, histamine 3 receptor (H3R) (Homo sapiens, UniProt Q9Y5N1)
T1 construct: expressed in transfected cells; host or cells: CHO cells (HR3-CHO)
Assay: Binding assay with 3H-(R)α-methylhistamine (competition binding)
Conditions: competition with 3H(R)α-methylhistamine (1 nM), membranes of the human HR3-CHO cell line; Ki calculated from IC50 by Cheng-Prusoff
Description: Binding Assay with ^3H—(R)α-methylhistamine
Saturation binding experiments were performed using HR3-CHO membranes prepared as described in Takahashi, K, Tokita, S., Kotani, H. (2003) J. Pharmacol. Exp. Therapeutics 307, 213-218.
An appropriate amount of membrane (60 to 80 μg protein/well) was incubated with increasing concentrations of ^3H(R)α-Methylhistamine di-hydrochloride (0.10 to 10 nM). Non specific binding was determined using a 200 fold excess of cold (R)α-Methylhistamine dihydrobromide (500 nM final concentration). The incubation was carried out at room temperature (in deep-well plates shaking for three hours). The final volume in each well was 250 μl. The incubation was followed by rapid filtration on GF/B filters (pre-soaked with 100 μl of 0.5% PEI in Tris 50 mM shaking at 200 rpm for two hours). The filtration was made using a cell-harvester and the filter plates were then washed five times with ice cold washing buffer containing 0.5 M NaCl. After harvesting, the plates were dried at 55° C. for 60 min, then scintillation fluid (Microscint 40, 40 microl in each well) was added and the amount of radioactivity on the filter was determined in Packard top-counter after shaking the plates for two hours at 200 rpm at room temperature.
Binding Buffer: 50 mM Tris-HCl pH 7.4 and 5 mM MgCl2×6H2O pH 7.4. Washing Buffer: 50 mM Tris-HCl pH 7.4 and 5 mM MgCl2×6H2O and 0.5 M NaCl pH 7.4.
Indirect measurement of affinity of H3R inverse agonists: twelve increasing concentrations (ranging from 10 μM to 0.3 nM) of the selected compounds were always tested in competition binding experiments using membranes of the human HR3-CHO cell line. An appropriate amount of protein, e.g. approximately 500 cpm binding of RAMH at Kd, were incubated for 1 hour at room temperature in 250 μl final volume in 96-well plates in presence of ^3H(R)α-Methylhistamine (1 nM final concentration=Kd). Non-specific binding was determined using a 200 fold excess of cold (R)α-Methylhistamine dihydrobromide.
All compounds were tested at a single concentration in duplicate. […] The concentration at which 50% inhibition of the radioligand ^3H(R)α-methylhistamine is obtained (the IC50) is determined from the linear regression of a plot of the logarithm of the concentration versus percent inhibition measured for the different concentrations. Ki's were calculated from IC50 based on Cheng-Prusoff equation (Cheng, Y, Prusoff, W H (1973) Biochem Pharmacol 22, 3099-3108): Ki=IC50/[1+D/Kd] wherein D is the concentration of the radioligand and Kd is the binding constant for the radioligand binding to the receptor under the conditions used in the competition experiment.

T1 sequence (Q9Y5N1 whole entry): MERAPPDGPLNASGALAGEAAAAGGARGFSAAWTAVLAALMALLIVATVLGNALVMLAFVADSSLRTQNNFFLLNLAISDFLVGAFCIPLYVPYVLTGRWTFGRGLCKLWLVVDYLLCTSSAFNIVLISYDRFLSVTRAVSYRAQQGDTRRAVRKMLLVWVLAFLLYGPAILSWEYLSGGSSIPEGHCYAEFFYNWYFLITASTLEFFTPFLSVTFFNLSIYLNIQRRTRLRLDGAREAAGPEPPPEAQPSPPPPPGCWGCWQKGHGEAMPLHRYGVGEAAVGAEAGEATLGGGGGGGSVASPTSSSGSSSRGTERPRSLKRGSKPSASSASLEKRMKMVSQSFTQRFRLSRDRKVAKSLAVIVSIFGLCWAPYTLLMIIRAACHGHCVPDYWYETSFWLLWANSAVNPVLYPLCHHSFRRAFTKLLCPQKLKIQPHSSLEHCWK

Ki	Structure (SMILES)
1.3 nM	CC(C)N1CCC(Oc2ccc3c(-c4ccccc4)c(C(=O)N4CCC(F)(F)CC4)oc3c2)CC1 [Example 17, (4,4-Difluoro-piperidin-1-yl)-[6-(1-isopropyl-piperidin-4-yloxy)-3-phenyl-benzofuran-2-yl]-methanone]
0.4 nM	COC(=O)N1CCN(C(=O)c2oc3cc(OC4CCN(C(C)C)CC4)ccc3c2-c2ccc(F)cc2)CC1 [Example 45, 4-[3-(4-Fluoro-phenyl)-6-(1-isopropyl-piperidin-4-yloxy)-benzofuran-2-carbonyl]-piperazine-1-carboxylic acid methyl ester]
0.1 nM	O=C(c1oc2cc(OC3CCN(C4CCC4)CC3)ccc2c1-c1ccc(F)cc1)N1CCC(F)(F)CC1 [Example 65, [6-(1-Cyclobutyl-piperidin-4-yloxy)-3-(4-fluoro-phenyl)-benzofuran-2-yl]-(4,4-difluoro-piperidin-1-yl)-methanone]
1.5 nM	CC(C)N1CCC(Oc2cc3cc(C(=O)N4CCS(=O)(=O)CC4)sc3cc2Cl)CC1 [Example 69, [6-Chloro-5-(1-isopropyl-piperidin-4-yloxy)-benzo[b]thiophen-2-yl]-(1,1-dioxo-1λ6thiomorpholin-4-yl)-methanone]
0.8 nM	COC(=O)N1CCN(C(=O)c2oc3cc(OC4CCN(C(C)C)CC4)c(Cl)cc3c2C(C)C)CC1 [Example 72, 4-[5-Chloro-3-isopropyl-6-(1-isopropyl-piperidin-4-yloxy)-benzofuran-2-carbonyl]-piperazine-1-carboxylic acid methyl ester]
0.5 nM	COC(=O)N1CCN(C(=O)c2oc3cc(OC4CCN(C5CCC5)CC4)c(Cl)cc3c2C(C)C)CC1 [Example 76, 4-[5-Chloro-6-(1-cyclobutyl-piperidin-4-yloxy)-3-isopropyl-benzofuran-2-carbonyl]-piperazine-1-carboxylic acid methyl ester]
0.4 nM	CC(C)N1CCC(Oc2cc3oc(C(=O)N4CCS(=O)(=O)CC4)c(-c4ccc(F)cc4)c3cc2Cl)CC1 [Example 82, [5-Chloro-3-(4-fluoro-phenyl)-6-(1-isopropyl-piperidin-4-yloxy)-benzofuran-2-yl]-(1,1-dioxo-1λ6thiomorpholin-4-yl)-methanone]
2.6 nM	Cc1c(C(=O)N2CCC(F)(F)CC2)oc2cc(OC3CCN(C4CCC4)CC3)c(Cl)cc12 [Example 91, [5-Chloro-6-(1-cyclobutyl-piperidin-4-yloxy)-3-methyl-benzofuran-2-yl]-(4,4-difluoro-piperidin-1-yl)-methanone]
2.3 nM	COC(=O)N1CCN(C(=O)c2oc3cc(OC4CCN(C5CCC5)CC4)c(Cl)cc3c2C)CC1 [Example 94, 4-[5-Chloro-6-(1-cyclobutyl-piperidin-4-yloxy)-3-methyl-benzofuran-2-carbonyl]-piperazine-1-carboxylic acid methyl ester]
